Data as given in patent publication US12416034B2, “Recombinant production of steviol glycosides” (EVOLVA SA, priority 2011, dated 2025).

Assays:
[1] = In vitro assay of lysates of EUGT11-expressing cells after permeabilization treatment; format: biochemical, S. cerevisiae; settings: lysates of EUGT11 transformants, untreated or after LiAC/PEG, Triton X100 or LS treatment
Description: Experiments were done to establish conditions for permeabilization in E. coli and in yeast. Growing cells (S. cerevisiae or E. coli) were treated with different concentrations/combinations of permeabilization agents: toluene, chloroform and ethanol for permeabilization of S. cerevisiae, and guanidine, lactic acid, DMSO and/or Triton X-100 for permeabilization of E. coli. Tolerance of both model organisms to high concentrations of RebA and other potential substrates also was evaluated. The permeabilization was measured by the amount of RebD produced from a EUGT11-expressing organism after incubation in a RebA containing medium (feeding experiment). Enzyme activity was monitored before and after exposure to the permeabilizing agents by lysing the cells and analyzing the activity of the released UGTs in an in vitro assay.
Treatment with Triton X-100 0.3% or 0.5%, however, increased the amount of RebD above background levels (see FIG. 18) while sustaining the activity of EUGT11. For Triton X-100 assays, overnight cultures were washed three times in PBS buffer. Cells corresponding to 6 OD600 units were resuspended in PBS containing 0.3% or 0.5% Triton X-100 respectively. […]
Lysates from transformants expressing EUGT11 were able to convert some RebA into RebD (8 to 50 μM were measured in the reactions) when cells were untreated or after treatment with LiAC/PEG or Triton X100.

[2] = Coupled AtSUS/EUGT11 reaction, RebD formation; format: biochemical; settings: ~200 mM sucrose, 1 mM UDP, 100 μM RebA, GST-AtSUS1 and GST-EUGT11
Description: SUS catalyzes the formation of UDP-glucose and fructose from sucrose and from UDP as depicted in FIG. 11. This UDP-glucose then can be used by EUGT11 for glycosylation of RebA to produce RebD. In vitro assays as described above were performed, adding ˜200 mM sucrose, 1 mM UDP, 100 μM RebA, ˜1.6 μg purified GST-AtSUS1 and ˜0.8 μg GST-EUGT11. Formation of product, RebD, was evaluated by LC-MS. When AtSUS, EUGT11, sucrose and UDP were mixed with RebA, 81±5 μM of RebD was formed. The reaction was dependent on the presence of AtSUS, EUGT11 and sucrose. The conversion rate was similar to what has been observed previously using UDP-glucose provided extraneously.

[3] = UDP-glucose regenerating activity of sucrose synthase; format: biochemical; settings: 1 mM UDP, ~200 mM sucrose, 37° C., 24 h
Description: Experiments were performed to evaluate the UDP-glucose regenerating activity of the purified GST-AtSUS1 and GST-SrSUS1. In vitro assays were conducted in 100 mM Tris-HCl pH=7.5 and 1 mM UDP (final concentration). Either ˜2.4 μg of purified GST-AtSUS1, ˜0.15 μg of GST-SrSUS1, or ˜1.5 μg commercial BSA (New England Biolabs, Ipswich, MA) were also added. Reactions were done in presence or absence of ˜200 mM sucrose and incubated at 37° C. for 24 h. Product UDP-glucose was measured by HPLC as described in the analytical section. AtSUS1 produced ˜0.8 mM UDP-glucose when sucrose was present. […] The lack of activity observed for SrSUS1 could be explained by the poor quality and concentration of the purified enzyme. UDP-glucose production by AtSUS1 was sucrose dependent and, therefore, it was concluded that AtSUS1 can be used in a coupled reaction to regenerate the UDP-glucose used by EUGT1 or other UGTs for small molecule glycosylation (FIG. 11, above).

ERG9 = experiment: Amorphadiene production (indirect FPP accumulation), GC-MS; format: cell-based, S. cerevisiae; settings: 72 h, construct in front of ERG9
Excerpt: DNA fragments encompassing an ERG9 promoter upstream sequence (for homologous recombination), an expression cassette for the gene (NatR) that confers resistance to Nourseothricin, a CYC1 promoter (SEQ ID NO: 185, FIG. 21), a 5′ UTR sequence with a stemloop structure, and an ERG9 ORF sequence (for homologous recombination) were generated by PCR. DNA fragments that contained either the CYC1 promoter or the KEX2 promoter (SEQ ID NO: 186) but no stemloops were also generated as controls. The flanking ERG9 sequences for recombination as well as the stemloop structure were introduced via the PCR oligos. The DNA fragments were transformed into an S. cerevisiae host strain that subsequently was selected on nourseothricin containing growth plates. […]
The Amorpha-4,11-diene Synthase (ADS) gene catalyzes the chemical reaction that turns one FPP molecule into Amorpha-4,11-diene in the plant Artemisia annua. […] Amorpha-4,11-diene production was measured and compared to the standard compound caryophyllene, as described by (Ro et al. 2006. Nature 440(7086):940-943; Paradise et al. Biotechnol Bioeng. 2008 Jun. 1; 100(2):371-8; Newman et al. Biotechnol Bioeng 95(4):684-691).
Engineered yeast strains were grown in SC 2% glucose with uracil dropped out. […] 10 μl of the dodecane layer was sampled and diluted 100 fold in ethyl acetate for quantification by GC-MS […]

[4] = system: Saccharomyces cerevisiae EFSC1923; experiment: Steviol 19-O-monoside production in EFSC1923 with plasmid-expressed enzymes; format: cell-based; settings: shake flask, co-expressed with KAH-3
Description: The 150 nucleotides at the 5′ end of the Zea mays CDP synthase coding sequence in Table 15 (SEQ ID NO:157, see FIG. 14) was deleted, the remainder of the coding sequence was provided with a new translation start ATG, and the truncated sequence was operably linked to the GPD1 promoter in the multicopy plasmid p423GPD in Saccharomyces cerevisiae EFSC1923. Plasmid p423GPD is described in Mumberg, D et al, Gene, 156: 119-122(1995). EFSC1923 and EFSC1923 plus p423GPD-Z.m.tCDPS were grown in for 96 hours in selective yeast medium containing 4% glucose. The amount of steviol 19-O-monoside produced by EFSC1923+p423GPD-Z.m.tCDPS (the truncated Zea mays CDPS) under these conditions was approximately 2.5 fold more than that produced by EFSC1923 without the plasmid.
The Arabidopsis thaliana KAH coding sequence from Table 15 was inserted in a multicopy plasmid designated p426GPD, under the control of the GPD1 promoter. Plasmid p426GPD is described in Mumberg, D et al, Gene. 156: 119-122(1995).
EFSC1923 was transformed with both p423GPD-Z.m.tCDPS and p426 p426GPD-A.t.KAH.
A bifunctional CDPS-KS from Gibberella fujikuroi (NCBI Accession no: Q9UVY5.1, FIG. 15) was cloned and compared to the truncated CDPS-5. […]

Molecule: CCCCCCCCCCCCN(C)CC(=O)O [LS, N-lauryl sarcosine]
- RebD measured in reactions of lysates [1]: no RebD was measured

Molecule: AtSUS1: A. thaliana SUS1 sucrose synthase
- RebD formed [2]: 81 ± 5 µM
- UDP-glucose produced [3]: ~0.8 mM

Molecule: SEQ ID NO: 181: heterologous insert TGAATTCGTTAACGAATTC behind the CYC1 promoter in front of ERG9 (expressed or natural sequence)
- increased production of amorphadiene (ERG9): 2.5 ×

B1: bifunctional CDPS-KS: bifunctional CDPS-KS from Gibberella fujikuroi, NCBI Accession no Q9UVY5.1 (protein, listed as Gibberella fujikuroi)
chain: MPGKIENGTPKDLKTGNDFVSAAKSLLDRAFKSHHSYYGLCSTSCQVYDTAWVAMIPKTRDNVKQWLFPECFHYLLKTQAADGSWGSLPTTQTAGILDTASAVLALLCHAQEPLQILDVSPDEMGLRIEHGVTSLKRQLAVWNDVEDTNHIGVEFIIPALLSMLEKELDVPSFEFPCRSILERMHGEKLGHFDLEQVYGKPSSLLHSLEAFLGKLDFDRLSHHLYHGSMMASPSSTAAYLIGATKWDDEAEDYLRHVMRNGAGHGNGGISGTFPTTHFECSWIIATLLKVGFTLKQIDGDGLRGLSTILLEALRDENGVIGFAPRTADVDDTAKALLALSLVNQPVSPDIMIKVFEGKDHFTTFGSERDPSLTSNLHVLLSLLKQSNLSQYHPQILKTTLFTCRWWWGSDHCVKDKWNLSHLYPTMLLVEAFTEVLHLIDGGELSSLFDESFKCKIGLSIFQAVLRIILTQDNDGSWRGYREQTCYAILALVQARHVCFFTHMVDRLQSCVDRGFSWLKSCSFHSQDLTWTSKTAYEVGFVAEAYKLAALQSASLEVPAATIGHSVTSAVPSSDLEKYMRLVRKTALFSPLDEWGLMASIIESSFFVPLLQAQRVEIYPRDNIKVDEDKYLSIIPFTWVGCNNRSRTFASNRWLYDMMYLSLLGYQTDEYMEAVAGPVFGDVSLLHQTIDKVIDNTMGNLARANGTVHSGNGHQHESPNIGQVEDTLTRFTNSVLNHKDVLNSSSSDQDTLRREFRTFMHAHITQIEDNSRFSKQASSDAFSSPEQSYFQWVNSTGGSHVACAYSFAFSNCLMSANLLQGKDAFPSGTQKYLISSVMRHATNMCRMYNDFGSIARDNAERNVNSIHFPEFTLCNGTSQNLDERKERLLKIATYEQGYLDRALEALERQSRDDAGDRAGSKDMRKLKIVKLFCDVTDLYDQLYVIKDLSSSMK
- activity in producing steviol 19-O-monoside relative to EFSC1923 with the KAH-3 alone [4]: about 5.8 times
